Measurements taken from EP1660440B1, “ACYLOXYALKYL CARBAMATE PRODRUGS, METHODS OF SYNTHESIS AND USE” (priority 2003, dated 2005).
Read-outs that look alike come from different tables or passages of the source.

Columns and labels:
Caco-2 cells = details: human, Caco-2, 200 uM
Method: For example, cellular permeability may be evaluated by examining the flux of a prodrug across a cultured polarized cell monolayer (e.g., Caco-2 cells). Caco-2 cells obtained from continuous culture (passage less than 28) were seeded at high density onto Transwell polycarbonate filters. Cells were maintained with DMEM / 10% fetal calf serum + 0.1 mM nonessential amino acids + 2 mM L-Gln, 5% CO2/ / 95% O2, 37°C until the day of the experiment. Permeability studies were conducted at pH 6.5 apically (in 50 mM MES buffer containing 1 mM CaCl2, 1mM MgCl2, 150 mM NaCl, 3 mM KCl, 1 mM NaH2PO4, 5 mM glucose) and pH 7.4 basolaterally (in Hanks' balanced salt solution containing 10 mM HEPES) in the presence of efflux pump inhibitors (250 µM MK-571, 250 µM Verapamil, 1 mM Ofloxacin). Inserts were placed in 12 or 24 well plates containing buffer and incubated for 30 min at 37C°. Prodrug (200 µM) was added to the apical or basolateral compartment (donor) and concentrations of prodrug and/or released parent drug in the opposite compartment (receiver) were determined at intervals over 1 hour using LC/MS/MS. Values of apparent permeability (Papp) were calculated using the equation: Papp = Vr (dC/dt)//(ACo) [formula]
Here Vr is the volume of the receiver compartment in mL; dC/dt is the total flux ofprodrug and parent drug (µM/s), determined from the slope of the plot of concentration in the receiver compartment versus time; Co is the initial concentration of prodrug in µM; A is the surface area of the membrane in cm^2.

Pancreatin stability = type: in vitro ADME, porcine; details: pig; for remaining at 1 h, 5 µM: read-out: % of Prodrug Remaining
Method: (§1) Pancreatin Stability: Stability studies were conducted by incubating prodrug (5 µM) with 1 % (w/v) pancreatin (Sigma, P-1625, from porcine pancreas) in 0.025 M Tris buffer containing 0.5 M NaCl (pH 7.5) at 37 °C for 60 min. The reaction was stopped by addition of 2 volumes of methanol. After centrifugation at 14,000 rpm for 10 min, the supernatant was removed and analyzed by LC/MS/MS.

in vitro [1] = details: human, plasma, % of Baclofen Released
Method: (§2) The stabilities of prodrugs were evaluated in one or more in vitro systems using a variety of tissue preparations following methods known in the art. The chemical stability of prodrugs in aqueous buffers at pH's of 2.0, 7.4 and 8.0 were also measured. […] Each preparation was incubated with test compound at 37°C for one hour. Aliquots (50 µL) were removed at 0, 30, and 60 min and quenched with 0.1 % trifluoroacetic acid in acetonitrile.

in vitro [2] = details: human
Method: as §2

in vitro [3] = details: rat, plasma
Method: as §2

physchem = details: aqueous buffer
Method: as §2

in vitro [4] = details: rat
Method: as §2

in vitro [5] = details: human, caco-2 homogenate s9
Method: (§3) For stability studies, prodrug (5 µM) was incubated in Caco-2 homogenate S9 fraction (0.5 mg protein per mL) for 60 min at 37°C. Concentrations of intact prodrug and released baclofen were determined at zero time and 60 minutes using LC/MS/MS.

[6] = 60 min
Method: as §2

[7] = 60 min; remark: listed apart in the source
Method: as §2

[8] = not given; remark: listed apart in the source
[9] = 5 µM
Method: as §3

[10] = not given; remark: listed apart in the source
Pancreatin = Pancreatin stability; type: in vitro ADME, porcine; details: pig, pancreatin, 1 h, 5 µM, pH 7.5
Method: as §1

[11] = liver s9, % of Prodrug Remaining
[12] = Human Plasma, 2.0 µM, 37°C, after 60 min
[13] = Human Liver S9 (0.5 mg/mL), 2.0 µM, NADPH, 37°C, after 60 min, 60 min
[14] = Rat Plasma, 2.0 µM, 37°C, after 60 min
[15] = Caco-2 S9 (0.5 mg protein per mL), 37°C, after 60 min, 60 min
[16] = Rat Liver S9 (0.5 mg/mL), 2.0 µM, NADPH, 37°C, after 60 min, 60 min

CCCC(OC(=O)NC[C@H](CC(=O)[O-])c1ccc(Cl)cc1)OC(=O)c1ccccc1.[Na+] (stereo partly drawn) [(71), Sodium 4-[(1-Benzoyloxybutoxy)carbonylamino]-(3R)-(4-chlorophenyl)-butanoate]
Ratio A-BB-A (Caco-2 cells): 7.1

CCCC(OC(=O)NC[C@H](CC(=O)[O-])c1ccc(Cl)cc1)OC(=O)C(C)C.[Na+] (stereo partly drawn) [(72), Sodium 4-[(1-Isobutanoyloxybutoxy)carbonylamino]-(3R)-(4-chlorophenyl)-butanoate]
Ratio A-BB-A (Caco-2 cells): 3.5

CCCC(=O)OC(CCC)OC(=O)NC[C@H](CC(=O)[O-])c1ccc(Cl)cc1.[Na+] (stereo partly drawn) [(73), Sodium 4-[(1-Butanoyloxybutoxy)carbonylamino]-(3R)-(4-chlorophenyl)-butanoate]
Ratio A-BB-A (Caco-2 cells): 3.2

CCCC(OC(C)=O)OC(=O)NC[C@H](CC(=O)[O-])c1ccc(Cl)cc1.[Na+] (stereo partly drawn) [(74), Sodium 4-[(1-Acetoxybutoxy)carbonylamino]-(3R)-(4-chlorophenyl)-butanoate]
Ratio A-BB-A (Caco-2 cells): 11.2

CCCC(=O)OC(CC)OC(=O)NC[C@H](CC(=O)[O-])c1ccc(Cl)cc1.[Na+] (stereo partly drawn) [(78), Sodium 4-[(1-Butanoyloxypropoxy)carbonylamino]-(3R)-(4-chlorophenyl)-butanoate]
Ratio A-BB-A (Caco-2 cells): 7.9

CCCC(=O)O[C@H](CCC)OC(=O)NC[C@H](CC(=O)O)c1ccc(Cl)cc1 [(86), Sodium 4-{[(1S)-Butanoyloybutoxy]carbonylamino}-(3R)-(4-chlorophenyl)-butanoate]
metabolised at 1 h, 5 µM (Pancreatin stability; pancreatin, pH 7.5, 1 % (w/v) pancreatin, 5 µM, pH 7.5, 37 °C, after 60 min, read-out: % of Baclofen Released): 76% | remaining at 1 h, 5 µM (Pancreatin stability; 1 % (w/v) pancreatin, 5 µM, pH 7.5, 37 °C, after 60 min): 4% | metabolised at 1 h, 2 µM (in vitro [1]): 13% | metabolised at 1 h, 2 µM (in vitro [2]; liver s9): 87% | remaining at 1 h, 2 µM (in vitro [2]; [11]): 2% | metabolised at 1 h, 2 µM (in vitro [3]): 83% | degraded at 1 h (physchem; pH 2, % of Baclofen Released): 0% | degraded at 1 h (physchem; pH 7.4, % of Baclofen Released): 1% | degraded at 1 h (physchem; pH 8, % of Baclofen Released): 2% | metabolised at 1 h, 2 µM (in vitro [4]; liver s9): 92% | remaining at 1 h, 2 µM (in vitro [4]; [11]): 2% | metabolised at 1 h, 5 µM (in vitro [5]): 95%

CC(C)C(=O)O[C@@H](OC(=O)NC[C@H](CC(=O)O)c1ccc(Cl)cc1)C(C)C [(104), 4-{[(1S)-Isobutanoyloxyisobutoxy]carbonylamino}-(3R)-(4-chlorophenyl) -butanoic Acid]
% of Baclofen Released [6, 12]: 2% | % of Prodrug Remaining [6, 12]: 98% | remaining at 1 h, 5 µM (Pancreatin stability; pancreatin, pH 7.5): 90% | % of Baclofen Released [13]: 97% | % of Prodrug Remaining [13]: 3% | degraded at 1 h (physchem; pH 2, % of Baclofen Released): 0% | degraded at 1 h (physchem; pH 7.4, % of Baclofen Released): 0% | % of Baclofen Released [7, 14]: 85% | % of Prodrug Remaining [7, 14]: 14% | % of Prodrug Remaining ([8]; aqueous buffer pH 7.4, 37°C, after 60 min, 60 min): 100% | % of Baclofen Released ([8]; aqueous buffer pH 8.0, 37°C, after 60 min, 60 min): 0% | % of Prodrug Remaining ([8]; aqueous buffer, pH 2, 60 min): 100/0% | % of Prodrug Remaining ([8]; aqueous buffer, pH 8, 60 min): 100/0% | % of Baclofen Released [9, 15]: 83% | % of Prodrug Remaining [9, 15]: 17% | % of Baclofen Released [10, 16]: 97% | % of Prodrug Remaining [10, 16]: 3%

Sodium 4-[(1-Benzoyloxgyethoxy)carbonylaminol-(3R)-(4-chlorophenyl)-butanoate [(40)]
% of Baclofen Released ([6]; human, plasma, 2 µM): 101/2% | % of Prodrug Remaining ([6]; human, plasma, 2 µM): 101/2% | % of Baclofen Released (Pancreatin): 43/58% | % of Prodrug Remaining (Pancreatin): 43/58% | % of Baclofen Released (human, s9, 60 min, 2 µM): 1/105% | % of Prodrug Remaining (human, s9, 60 min, 2 µM): 1/105% | % of Baclofen Released ([7]; rat, plasma, 2 µM): 72/17% | % of Prodrug Remaining ([7]; rat, plasma, 2 µM): 72/17% | % of Baclofen Released ([8]; aqueous buffer, pH 2, 60 min): 103/0% | % of Prodrug Remaining ([8]; aqueous buffer, pH 2, 60 min): 103/0% | % of Baclofen Released ([8]; aqueous buffer, pH 7.4, 60 min): 100/0% | % of Prodrug Remaining ([8]; aqueous buffer, pH 7.4, 60 min): 100/0% | % of Baclofen Released ([8]; aqueous buffer, pH 8, 60 min): 107/2% | % of Prodrug Remaining ([8]; aqueous buffer, pH 8, 60 min): 107/2% | % of Baclofen Released ([9]; human, s9, 1 h): 15/85% | % of Prodrug Remaining ([9]; human, s9, 1 h): 15/85% | % of Baclofen Released ([10]; rat, s9, 60 min, 2 µM): 8/96% | % of Prodrug Remaining ([10]; rat, s9, 60 min, 2 µM): 8/96%
